Experiments:
[1] = system: MRC5 cells; test: Cytotoxicity in normal cells, CCK8 analysis; format: cell-based; conditions: 0.5-100 μM, 24 hours, CCK8, compared with the control group, FIG. 2
Method: For confirmation of cytotoxicity in normal cells, MRC (i.e., normal lung cells) were cultured in an incubator set at 37° C. with 95% humidity and 5% CO2.
Additionally, MRC5 cells were proliferated to a confluency of 70-80% on a plate using a growth medium (Minimum Essential Medium (MEM) supplemented with 10% fetal bovine serum (FBS), 100 U/ml of penicillin, and 100 μg/ml of streptomycin), and then used for the experiment.
In order to confirm the cytotoxicity of the compound according to an embodiment of the present invention, CCK8 analysis was performed for the prepared MRC5 cells.
First, after culturing MRC5 cells to 70-80% confluency in a 24-well plate, the test material was diluted in a culture medium except for the control group and treated with 0.5 μM, 2.5 μM, 10 μM, 20 μM, 40 μM, 80 μM, and 100 μM.
After 24 hours of treatment of the test material, CCK8 solution was dispensed 10 μL per well and incubated for 2 hours in a state where the light was blocked.
After 2 hours, 200 μL of the culture solution from each well was transferred to a 96 well plate and absorbance was measured at 450 nm.

[2] = system: steatosis-induced Huh7 cells; test: Protein expression levels (western blot) for MOA confirmation in steatosis-induced liver cells; format: cell-based; conditions: 250 μM PA, 0.25-40 μM compound, 24 hours, FIG. 1
Method: An experiment to confirm the expression levels of proteins in steatosis-induced liver cells was conducted as follows.
To determine the protein expression level for MOA confirmation in steatosis-induced liver cells BW-3290 of the present invention, Huh7 cells were cultured in an incubator set at 37° C., 95% humidity, and 5% CO2.
Additionally, Huh7 cells were proliferated to a confluency of 80-90% on a plate using a growth medium (Dulbecco's modified Eagle's medium (DMEM) supplemented with 10% fetal bovine serum (FBS), 100 U/ml of penicillin, and 100 μg/ml of streptomycin), and then used for the experiment.
To induce steatosis in Huh-7 cells in each well except for control cells, the Huh-7 cells were treated with PA bound to 2% BSA at a concentration of 250 μM except for the control, and the control cells were pretreated with 2% BSA without FA.
The cells in each well were treated with the compounds of the present invention, R- or S-form of BW-3290, 0.25 μM, 0.5 μM, 1 μM, 5 μM, 10 μM, 20 μM, and 40 μM and then cultured for 24 hours. The control cells and PA treated cells were treated with DMSO. All media were aspirated and the cells were gently washed 3 times with cold PBS.
A cold lysis buffer containing 150 mM sodium chloride (NaCl), 5 mM ethylenediaminetetraacetic acid (EDTA), pH 8.0, […] 4-(2-hydroxyethyl)-1-piperazineethanesulfonic acid (HEPES), 1% nonylphenoxypolyethoxylethanol (NP-40), 2 μg/mL aprotinin, 1 μM pepstatin A, 10 μM leupeptin, 1 mM sodium fluoride (NaF), 0.2 mM sodium orthovanadate ([…]), and 1 μM phenylmethylsulfonyl fluoride (PMSF) was added thereto.
A whole cell lysate was collected and gently pipetted at least 10 times to ensure complete lysis. The sample was incubated on ice for 20 minutes and centrifuged 4° C. at 13,000 rpm, for 20 minutes. The supernatant was collected, 5× sodium dodecyl sulfate (SDS) sample buffer containing 50 mM Tris-CI (pH 6.8), 2% SDS, 0.1% bromopheol blue, and 10% glycerol was added to the sample, and boiled at 95° C. for 5 minutes.
The wells of 10% SDS-polyacrylamide gel electrophoresis (SDS-PAGE) were loaded with the same amount of a protein along with the molecular weight marker. The gel was electrophoresed at 100 V for 30 minutes in an electrophoresis chamber (Bio-Rad Laboratories, Hercules, Calif., USA).
A polyvinylidene fluoride (PVDF) membrane (MilliporeSigma, Burlington, Mass., USA) was activated with methanol (MeOH) for 1 minute and washed with a transfer buffer containing 25 mM Tris, 190 mM glycine, and 20% MeOH. The gel was placed in the transfer buffer for 10 minutes.
The transfer sandwich (in the order of paper, gel, membrane, and paper) was assembled and it was checked whether no air bubbles were trapped in the transfer sandwich. The transfer sandwich was placed in a transfer tank (Bio-Rad Laboratories) and ice cubes were placed in the transfer tank to prevent the transfer buffer from being heated. The protein was transferred from the gel to the PVDF membrane at 100 V for 30 minutes.
After washing the PVDF membrane with distilled water, the membrane was blocked for 1 hour at room temperature with a blocking buffer prepared by 5% skim milk (Difco Laboratories, Franklin Lakes, N.J., USA) in TBST containing 0.1% tween 20 (TBST, Sigma-Aldrich).
The membrane was incubated in a buffer in which the primary antibody was appropriately diluted. The membrane of fatty acid synthase (FAS), phosphor-AMP-activated protein kinase (p-AMPK), SIRT1, and SIRT3 was washed 3 times with TBST for 5 minutes each.
The membrane was incubated with a recommended dilution of horseradish peroxidase (HRP)-conjugated secondary mouse antibody in blocking buffer at room temperature for 1 hour.
The membrane was washed 5 times with TBST for 5 minutes each. Excess reagent was removed and the membrane was covered with a clear plastic wrap.
ECL prime western blotting detection reagent (GE Healthcare, Chicago, Ill., USA) was applied according to the manufacturer's recommendations. […]

Row | Structure (SMILES) | cytotoxicity in normal cells [1] | SIRT1 protein expression level [2] | SIRT3 protein expression level [2] | level of FAS (fat synthesis protein) [2] | p-AMPK protein expression level [2]
1 | CC(C)C(Nc1ncnc2nc[nH]c12)c1nc2cccc(Cl)c2c(=O)n1-c1ccccc1 (racemic) [RS-form, 2-(1-((7H-purin-6-yl)amino)-2-methylpropyl)-5-chloro-3-phenylquinazolin-4(3H)-one] | showed some toxicity | – | – | – | –
2 | CC(C)[C@@H](Nc1ncnc2nc[nH]c12)c1nc2cccc(Cl)c2c(=O)n1-c1ccccc1 [R-form of BW-3290, (R)-2-(1-((7H-purin-6-yl)amino)-2-methylpropyl)-5-chloro-3-phenylquinazolin-4(3H)-one] | did not show toxicity | increased | increased | decreased in a concentration-dependent manner | increased
3 | CC(C)[C@H](Nc1ncnc2nc[nH]c12)c1nc2cccc(Cl)c2c(=O)n1-c1ccccc1 [S-form, (S)-2-(1-((7H-purin-6-yl)amino)-2-methylpropyl)-5-chloro-3-phenylquinazolin-4(3H)-one] | showed some toxicity | increased | increased | – | increased

Reference: patent US20230097253A1, “NOVEL QUINAZOLINE COMPOUND AS THERAPEUTIC AGENT FOR METABOLIC DISORDERS” (BIOWAY., INC, priority 2020, published 2023)
